From paper PMC12171682, “Saarvienin A—A Novel Glycopeptide with Potent Activity against Drug‐Resistant Bacteria” (Angewandte Chemie (International Ed. in English), 2025)
≈ marks a conversion by molar mass, not a printed value. Like-named read-outs stand apart in the source and are kept apart here.

Key:
E. faecalis ATCC 29212 [1] = assay: microbe, parasite or virus in culture; settings: Enterococcus faecalis, ATCC29212, 24 h, read-out: MIC, E. faecalis ATCC29212
[2] = tested on: vancomycin‐resistant E. faecium clinical isolates with reduced susceptibility to daptomycin (n = 26); assay: microbe, parasite or virus in culture; settings: Enterococcus faecium; for MIC: 24 h; for MIC50 / MIC90: VRE
[3] = tested on: vancomycin‐resistant E. faecium clinical isolates with reduced susceptibility to daptomycin (n = 26); settings: broth microdilution, MHB II, daptomycin with 50 µg/mL Ca2+, mean of two independent experiments
E. faecalis ATCC 29212 [4] = settings: reference strain in Table S5; broth microdilution, MHB II, 37 °C, 24 h; daptomycin with 50 µg/mL Ca2+; mean of two independent experiments
[5] = read-out: MIC, Enterococcus faecium isolate 1
[6] = read-out: MIC, Enterococcus faecium isolate 2
[7] = read-out: MIC, Enterococcus faecium isolate 3
[8] = read-out: MIC, Enterococcus faecium isolate 4
[9] = read-out: MIC, Enterococcus faecium isolate 5
[10] = read-out: MIC, Enterococcus faecium isolate 6
[11] = read-out: MIC, Enterococcus faecium isolate 7
[12] = read-out: MIC, Enterococcus faecium isolate 8
[13] = read-out: MIC, Enterococcus faecium isolate 9
[14] = read-out: MIC, Enterococcus faecium isolate 10
[15] = read-out: MIC, Enterococcus faecium isolate 11
[16] = read-out: MIC, Enterococcus faecium isolate 12
[17] = read-out: MIC, Enterococcus faecium isolate 13
[18] = read-out: MIC, Enterococcus faecium isolate 14
[19] = read-out: MIC, Enterococcus faecium isolate 15
[20] = read-out: MIC, Enterococcus faecium isolate 16
[21] = read-out: MIC, Enterococcus faecium isolate 17
[22] = read-out: MIC, Enterococcus faecium isolate 18
[23] = read-out: MIC, Enterococcus faecium isolate 19
[24] = read-out: MIC, Enterococcus faecium isolate 20
[25] = read-out: MIC, Enterococcus faecium isolate 21
[26] = read-out: MIC, Enterococcus faecium isolate 22
[27] = read-out: MIC, Enterococcus faecium isolate 23
[28] = read-out: MIC, Enterococcus faecium isolate 24
[29] = read-out: MIC, Enterococcus faecium isolate 25
[30] = read-out: MIC, Enterococcus faecium isolate 26
[31] = 26 VRE E. faecium clinical isolates

Molecule: CNC(C)C1CCC(N)C(OC2C(N)CC(N)C(OC3OCC(C)(O)C(NC)C3O)C2O)O1 (stereo not drawn) [Gentamicin]
- MIC (E. faecalis ATCC 29212 [1]): 8 µg/mL (≈ 16.8 µM)
- MIC [2, 5]: > 64 µg/mL
- MIC [2, 6]: > 64 µg/mL
- MIC [2, 7]: 64 µg/mL (≈ 134 µM)
- MIC [2, 8]: > 64 µg/mL
- MIC [2, 9]: > 64 µg/mL
- MIC [2, 10]: > 64 µg/mL
- MIC [2, 11]: > 64 µg/mL
- MIC [2, 12]: > 64 µg/mL
- MIC [2, 13]: > 64 µg/mL
- MIC [2, 14]: > 64 µg/mL
- MIC [2, 15]: > 64 µg/mL
- MIC [2, 16]: > 64 µg/mL
- MIC [2, 17]: > 64 µg/mL
- MIC [2, 18]: > 64 µg/mL
- MIC [2, 19]: > 64 µg/mL
- MIC [2, 20]: > 64 µg/mL
- MIC [2, 21]: > 64 µg/mL
- MIC [2, 22]: > 64 µg/mL
- MIC [2, 23]: > 64 µg/mL
- MIC [2, 24]: > 64 µg/mL
- MIC [2, 25]: > 64 µg/mL
- MIC [2, 26]: > 64 µg/mL
- MIC [2, 27]: > 64 µg/mL
- MIC [2, 28]: > 64 µg/mL
- MIC [2, 29]: > 64 µg/mL
- MIC [2, 30]: > 64 µg/mL
- MIC50 [2]: > 64 µg/mL
- MIC90 [2]: > 64 µg/mL

Molecule: CC(=O)NC[C@H]1CN(c2ccc(N3CCOCC3)c(F)c2)C(=O)O1 [Linezolid]
- MIC Range [3, 31]: 2 to 4 µg/mL
- MIC (E. faecalis ATCC 29212 [1]): 2 µg/mL (≈ 5.93 µM)
- MIC [2, 5]: 2 µg/mL (≈ 5.93 µM)
- MIC [2, 6]: 2 µg/mL (≈ 5.93 µM)
- MIC [2, 7]: 4 µg/mL (≈ 11.9 µM)
- MIC [2, 8]: 2 µg/mL (≈ 5.93 µM)
- MIC [2, 9]: 4 µg/mL (≈ 11.9 µM)
- MIC [2, 10]: 4 µg/mL (≈ 11.9 µM)
- MIC [2, 11]: 2 µg/mL (≈ 5.93 µM)
- MIC [2, 12]: 2 µg/mL (≈ 5.93 µM)
- MIC [2, 13]: 2 µg/mL (≈ 5.93 µM)
- MIC [2, 14]: 2 µg/mL (≈ 5.93 µM)
- MIC [2, 15]: 2 µg/mL (≈ 5.93 µM)
- MIC [2, 16]: 4 µg/mL (≈ 11.9 µM)
- MIC [2, 17]: 4 µg/mL (≈ 11.9 µM)
- MIC [2, 18]: 4 µg/mL (≈ 11.9 µM)
- MIC [2, 19]: 4 µg/mL (≈ 11.9 µM)
- MIC [2, 20]: 4 µg/mL (≈ 11.9 µM)
- MIC [2, 21]: 2 µg/mL (≈ 5.93 µM)
- MIC [2, 22]: 4 µg/mL (≈ 11.9 µM)
- MIC [2, 23]: 4 µg/mL (≈ 11.9 µM)
- MIC [2, 24]: 2 µg/mL (≈ 5.93 µM)
- MIC [2, 25]: 2 µg/mL (≈ 5.93 µM)
- MIC [2, 26]: 4 µg/mL (≈ 11.9 µM)
- MIC [2, 27]: 4 µg/mL (≈ 11.9 µM)
- MIC [2, 28]: 4 µg/mL (≈ 11.9 µM)
- MIC [2, 29]: 4 µg/mL (≈ 11.9 µM)
- MIC [2, 30]: 2 µg/mL (≈ 5.93 µM)
- MIC50 [2]: 4 µg/mL (≈ 11.9 µM)
- MIC90 [2]: 4 µg/mL (≈ 11.9 µM)

Molecule: teicoplanin
- MIC, E. faecalis ATCC29212 (E. faecalis ATCC 29212 [4]): 0.5 µg/mL
- MIC50 [3, 31]: 64 µg/mL
- MIC, Enterococcus faecium isolate 1 ([3]; clinical isolate 1, 37 °C, 24 h): 64 µg/mL
- MIC, Enterococcus faecium isolate 2 ([3]; clinical isolate 2, 37 °C, 24 h): 32 µg/mL
- MIC, Enterococcus faecium isolate 3 ([3]; clinical isolate 3, 37 °C, 24 h): 2 µg/mL
- MIC, Enterococcus faecium isolate 4 ([3]; clinical isolate 4, 37 °C, 24 h): 2 µg/mL
- MIC, Enterococcus faecium isolate 5 ([3]; clinical isolate 5, 37 °C, 24 h): > 64 µg/mL
- MIC, Enterococcus faecium isolate 6 ([3]; clinical isolate 6, 37 °C, 24 h): 64 µg/mL
- MIC, Enterococcus faecium isolate 7 ([3]; clinical isolate 7, 37 °C, 24 h): 32 µg/mL
- MIC, Enterococcus faecium isolate 8 ([3]; clinical isolate 8, 37 °C, 24 h): 64 µg/mL
- MIC, Enterococcus faecium isolate 9 ([3]; clinical isolate 9, 37 °C, 24 h): > 64 µg/mL
- MIC, Enterococcus faecium isolate 10 ([3]; clinical isolate 10, 37 °C, 24 h): > 64 µg/mL
- MIC, Enterococcus faecium isolate 11 ([3]; clinical isolate 11, 37 °C, 24 h): 32 µg/mL
- MIC, Enterococcus faecium isolate 12 ([3]; clinical isolate 12, 37 °C, 24 h): 64 µg/mL
- MIC, Enterococcus faecium isolate 13 ([3]; clinical isolate 13, 37 °C, 24 h): 32 µg/mL
- MIC, Enterococcus faecium isolate 14 ([3]; clinical isolate 14, 37 °C, 24 h): 32 µg/mL
- MIC, Enterococcus faecium isolate 15 ([3]; clinical isolate 15, 37 °C, 24 h): 64 µg/mL
- MIC, Enterococcus faecium isolate 16 ([3]; clinical isolate 16, 37 °C, 24 h): 32 µg/mL
- MIC, Enterococcus faecium isolate 17 ([3]; clinical isolate 17, 37 °C, 24 h): 64 µg/mL
- MIC, Enterococcus faecium isolate 18 ([3]; clinical isolate 18, 37 °C, 24 h): 32 µg/mL
- MIC, Enterococcus faecium isolate 19 ([3]; clinical isolate 19, 37 °C, 24 h): 64 µg/mL
- MIC, Enterococcus faecium isolate 20 ([3]; clinical isolate 20, 37 °C, 24 h): 64 µg/mL
- MIC, Enterococcus faecium isolate 21 ([3]; clinical isolate 21, 37 °C, 24 h): > 64 µg/mL
- MIC, Enterococcus faecium isolate 22 ([3]; clinical isolate 22, 37 °C, 24 h): 64 µg/mL
- MIC, Enterococcus faecium isolate 23 ([3]; clinical isolate 23, 37 °C, 24 h): > 64 µg/mL
- MIC, Enterococcus faecium isolate 24 ([3]; clinical isolate 24, 37 °C, 24 h): > 64 µg/mL
- MIC, Enterococcus faecium isolate 25 ([3]; clinical isolate 25, 37 °C, 24 h): > 64 µg/mL
- MIC, Enterococcus faecium isolate 26 ([3]; clinical isolate 26, 37 °C, 24 h): > 64 µg/mL
